Assay results taken from patent US20110158980A1, “METHODS TO TREAT AND SCREEN FOR AGENTS TO TREAT OBESITY” (TRUSTEES OF TUFTS COLLEGE, priority 2008, published 2011).

Tests used:
Assay type in all cases: cell-based
[1] = system: 3T3-L1 adipocytes; test: Amino acid uptake or output of adipocytes (HPLC of spent medium); details: day 12 post-induction, positive value = uptake
Experimental: (§1) 3T3-L1 preadipocytes were plated onto 24-well plates and expanded in preadipocyte growth medium consisting of DMEM supplemented with calf serum (10% v/v), penicillin and streptomycin. Medium was replenished every other day. Two days post-confluence, the cells were induced to differentiate using an adipogenic cocktail (1 μg/ml insulin, 0.5 mM isobutylmethylxanthine, and 1 μM dexamethasone) added to a basal medium (DMEM with 10% fetal bovine serum and penicillin/streptomycin). After 48 hrs, the first medium was replaced with a second induction medium consisting of the basal adipocyte medium supplemented with only insulin. […] This basal medium was replenished every other day during the remainder of the culture experiments.
(§2) Metabolite measurements were performed both on cell lysates and spent medium samples as described previously (Si Y, Yoon J, Lee K. American journal of physiology 2007; 292:E1637-46). Cells were lysed in situ with an 0.1% SDS buffer and sonicated. Immediately after collection, the spent medium samples were cleaned of cell debris by a brief centrifugation step. Free glycerol, TG and free fatty acids (FFAs) were measured using enzymatic assay kits (SIGMA™). Glucose and lactate concentrations were measured using the methods of Trinder (Trinder P. J Clin Pathol 1969; 22:158-61) and Loomis (Loomis M E. J Lab Clin Med 1961; 57:966-9), respectively. Amino acids were quantified by HPLC using fluorescence-based detection following pre-column derivatization of primary or secondary amines with 6-aminoquinolyl-N-hydroxysuccinimidyl-carbamate (Cohen S A, De Antonis K M. J Chromatogr A 1994; 661:25-34). All metabolite data were normalized by the corresponding cell sample DNA content, which was determined with a fluorescence-based assay using the Hoechst dye.

[2] = system: 3T3-L1 adipocytes; test: Oxygen uptake rate by fiber-optic microsensor; details: phenylacetate at the higher concentration (10 mM); day 12 post-induction; FIG. 2F
Experimental: The dissolved oxygen in the culture medium was measured using a needle-type fiber-optic microsensor (MicroxTX3, Presens, Regensburg, Germany). The concentration data were related to the oxygen uptake rate (OUR) using the following diffusion-reaction model:
where c0 and hb are, respectively, the oxygen concentration at medium surface and height of the medium in the culture well. The bottom of the culture plate (and cell monolayer) is at z=−hb. Integrating equation (1) and applying the boundary conditions we obtain: […]
where hm and cm are, respectively, the distance between the probe and the medium surface and the measured oxygen concentration in the medium at the probe depth. The oxygen uptake rate was calculated by dividing the flux JO2 by the cell density. The measured oxygen uptake rate was used for relative comparisons between the treatment groups and not used for MFA in order to independently confirm the calculated oxygen uptake rate.

[3] = system: 3T3-L1 adipocytes; test: Metabolite assays (TG, FFA, glucose, lactate, glycerol) on cell lysates and spent medium; details: day 12 post-induction
Experimental: as §1, §2

SMILES: O=C(O)Cc1ccccc1 [phenylacetate]
- ALA uptake or output ([1]; 5 mM PA): 0.4 ± 0.1 mmol/g-DNA/2 days
- ASN uptake or output ([1]; 5 mM PA): −4.6 ± 0.2 mmol/g-DNA/2 days
- ASP uptake or output ([1]; 5 mM PA): 0.0 ± 0.0 mmol/g-DNA/2 days
- GLN uptake or output ([1]; 5 mM PA): −7.9 ± 0.6 mmol/g-DNA/2 days
- GLU uptake or output ([1]; 5 mM PA): 0.3 ± 0.0 mmol/g-DNA/2 days
- GLY uptake or output ([1]; 5 mM PA): −7.3 ± 0.2 mmol/g-DNA/2 days
- HIS uptake or output ([1]; 5 mM PA): −0.1 ± 0.1 mmol/g-DNA/2 days
- ILE uptake or output ([1]; 5 mM PA): 8.1 ± 0.3 mmol/g-DNA/2 days
- LEU uptake or output ([1]; 5 mM PA): 8.6 ± 0.3 mmol/g-DNA/2 days
- LYS uptake or output ([1]; 5 mM PA): −1.8 ± 0.1 mmol/g-DNA/2 days
- MET uptake or output ([1]; 5 mM PA): 0.1 ± 0.1 mmol/g-DNA/2 days
- PHE uptake or output ([1]; 5 mM PA): −0.1 ± 0.1 mmol/g-DNA/2 days
- PRO uptake or output ([1]; 5 mM PA): −1.4 ± 0.0 mmol/g-DNA/2 days
- SER uptake or output ([1]; 5 mM PA): 4.5 ± 0.2 mmol/g-DNA/2 days
- THR uptake or output ([1]; 5 mM PA): −1.2 ± 0.1^ mmol/g-DNA/2 days
- TYR uptake or output ([1]; 5 mM PA): 0.1 ± 0.2 mmol/g-DNA/2 days
- VAL uptake or output ([1]; 5 mM PA): 5.1 ± 0.4 mmol/g-DNA/2 days
- ALA uptake or output ([1]; 10 mM PA): −0.5 ± 0.1 mmol/g-DNA/2 days
- ASN uptake or output ([1]; 10 mM PA): −5.9 ± 0.4 mmol/g-DNA/2 days
- ASP uptake or output ([1]; 10 mM PA): 0.0 ± 0.0 mmol/g-DNA/2 days
- GLN uptake or output ([1]; 10 mM PA): 2.6 ± 2.9 mmol/g-DNA/2 days
- GLU uptake or output ([1]; 10 mM PA): 0.3 ± 0.0 mmol/g-DNA/2 days
- GLY uptake or output ([1]; 10 mM PA): −7.9 ± 0.9^ mmol/g-DNA/2 days
- HIS uptake or output ([1]; 10 mM PA): −0.1 ± 0.2 mmol/g-DNA/2 days
- ILE uptake or output ([1]; 10 mM PA): 7.5 ± 0.2 mmol/g-DNA/2 days
- LEU uptake or output ([1]; 10 mM PA): 7.9 ± 0.2 mmol/g-DNA/2 days
- LYS uptake or output ([1]; 10 mM PA): −2.0 ± 0.2 mmol/g-DNA/2 days
- MET uptake or output ([1]; 10 mM PA): 0.1 ± 0.2 mmol/g-DNA/2 days
- PHE uptake or output ([1]; 10 mM PA): −0.1 ± 0.4 mmol/g-DNA/2 days
- PRO uptake or output ([1]; 10 mM PA): −2.1 ± 0.2 mmol/g-DNA/2 days
- SER uptake or output ([1]; 10 mM PA): 4.6 ± 0.5 mmol/g-DNA/2 days
- THR uptake or output ([1]; 10 mM PA): −1.4 ± 0.4^ mmol/g-DNA/2 days
- TYR uptake or output ([1]; 10 mM PA): −0.0 ± 0.4 mmol/g-DNA/2 days
- VAL uptake or output ([1]; 10 mM PA): 3.8 ± 0.4 mmol/g-DNA/2 days
- Reduction of oxygen consumption [2]: 25%
- Increase of glucose uptake ([3]; 5 mM phenylacetate): 38%
- Increase of glycerol output ([3]; 5 mM phenylacetate): 1.2 fold
- Increase of lactate output ([3]; 5 mM phenylacetate): more than 2 fold
- Reduction of intracellular free fatty acid concentration ([3]; 5 mM phenylacetate): 9%
- Increase of glucose uptake ([3]; 10 mM phenylacetate): 28%
- Increase of glycerol output ([3]; 10 mM phenylacetate): 1.4 fold
- Increase of lactate output ([3]; 10 mM phenylacetate): more than 2 fold
- Reduction of intracellular free fatty acid concentration ([3]; 10 mM phenylacetate): 17%
